From patent US20170107173A1, “THERAPEUTIC COMPOUNDS AND METHODS” (UNIVERSITY OF IOWA RESEARCH FOUNDATION, priority 2015, published 2017)

Key:
[1] = target: T1, human κ opioid receptor (KOP) over-expressed in CHO cells (Homo sapiens, UniProt P41145); assay: [35S]GTPγS binding assay, functional antagonism (Ke) vs U69,593; type: biochemical; settings: agonist U69,593, read-out: apparent affinity (Ke) of antagonists, KOP
T1 construct: host or cells: CHO cells; membrane homogenates
Experimental: (§1) All compounds were initially screened for intrinsic and antagonist activity at 10 μM in the [^35S]GTPγS binding assay at the human κ, and the μ, and δ opioid receptors over-expressed in CHO cells. These cell lines were kindly provided by Temple University (κ) and SRI International (μ and δ). Compounds identified as antagonist were characterized for functional antagonism (Ke) and selectivity by measuring the ability of the test compounds to inhibit stimulated [^35S]GTPγS binding produced by one of the selective agonists DAMGO (μ), DPDPE (δ), or U69,593 (κ). Agonist concentration-response curves were run in the presence or absence of a single concentration of test compound.
(§2) The test compounds were assayed in duplicate in 1.4-mL polypropylene tubes in a 96-well format. CHO membrane homogenates (20-40 µg protein) were incubated with a positive control or the test compound, 0.1 nM [^35S]GTP-γ-S and 1 μM GDP in 50 mM HEPES buffer (pH 7.4) at room temperature for 1 h, after which bound radioligand was separated from free radioligand via rapid vacuum filtration over GF-B filters with a Brandel Scientific (Gaithersburg, Md.) 96-well harvester. Bound radioactivity is determined using a TopCount 12-detector instrument (Packard Instruments) using standard scintillation counting techniques. Bound radioactivity is normalized to samples containing vehicle (basal binding). […] The Ke values were calculated using the formula Ke=[L]/DR−1, where [L] is the concentration of test compound, and DR is the ratio of agonist EC50 value in the presence or absence of test compound.

[2] = target: T1, human κ opioid receptor (KOP) over-expressed in CHO cells; settings: from Hartung et al., cited from earlier work; for Ke at the KOP: J. Nat. Prod. 2014, 77, 311
[3] = target: T2, human μ opioid receptor (MOP) over-expressed in CHO cells (Homo sapiens, UniProt P35372); assay: [35S]GTPγS binding assay, functional antagonism (Ke) vs DAMGO; type: biochemical; settings: agonist DAMGO, read-out: apparent affinity (Ke) of antagonists, MOP
T2 construct: host or cells: CHO cells; membrane homogenates
Experimental: as §1, §2

[4] = target: T3, human δ opioid receptor (DOP) over-expressed in CHO cells (Homo sapiens, UniProt P41143); assay: [35S]GTPγS binding assay, functional antagonism (Ke) vs DPDPE; type: biochemical; settings: for Kb: [35S]GTPγS, agonist DPDPE, read-out: apparent affinity (Ke) of antagonists, DOP
T3 construct: host or cells: CHO cells; membrane homogenates
Experimental: as §1, §2

[5] = system: human κ, μ and δ opioid receptors over-expressed in CHO cells; assay: [35S]GTPγS binding assay, screen for intrinsic agonist activity; type: biochemical; settings: screened at 10 μM
Experimental: as §1
The test compounds were assayed in duplicate in 1.4-mL polypropylene tubes in a 96-well format. […] Bound radioactivity is determined using a TopCount 12-detector instrument (Packard Instruments) using standard scintillation counting techniques. Bound radioactivity is normalized to samples containing vehicle (basal binding). […] The Ke values were calculated using the formula Ke=[L]/DR−1, where [L] is the concentration of test compound, and DR is the ratio of agonist EC50 value in the presence or absence of test compound. […]

T2 sequence (P35372 whole entry): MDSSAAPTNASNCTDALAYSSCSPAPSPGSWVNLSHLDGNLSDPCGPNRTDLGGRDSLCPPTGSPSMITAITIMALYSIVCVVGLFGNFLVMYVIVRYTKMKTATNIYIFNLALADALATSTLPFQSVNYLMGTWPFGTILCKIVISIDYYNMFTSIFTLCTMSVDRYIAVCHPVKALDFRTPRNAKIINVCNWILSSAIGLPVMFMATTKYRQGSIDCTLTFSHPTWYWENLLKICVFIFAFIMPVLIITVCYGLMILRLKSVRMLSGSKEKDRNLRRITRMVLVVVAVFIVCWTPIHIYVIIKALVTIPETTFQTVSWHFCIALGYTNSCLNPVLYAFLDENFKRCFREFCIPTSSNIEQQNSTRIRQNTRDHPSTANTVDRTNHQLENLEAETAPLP
T1 sequence (P41145 whole entry): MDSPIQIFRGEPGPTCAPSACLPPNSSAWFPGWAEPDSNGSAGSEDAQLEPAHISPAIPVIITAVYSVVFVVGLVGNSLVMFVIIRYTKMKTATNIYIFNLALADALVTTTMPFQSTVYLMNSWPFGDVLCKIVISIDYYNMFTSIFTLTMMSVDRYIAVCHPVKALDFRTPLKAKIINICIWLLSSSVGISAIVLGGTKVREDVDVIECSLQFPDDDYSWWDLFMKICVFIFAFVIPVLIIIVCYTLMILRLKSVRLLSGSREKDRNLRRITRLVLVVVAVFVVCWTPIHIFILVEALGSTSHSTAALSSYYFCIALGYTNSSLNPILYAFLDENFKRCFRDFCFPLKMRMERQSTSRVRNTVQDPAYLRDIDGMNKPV
T3 sequence (P41143 whole entry): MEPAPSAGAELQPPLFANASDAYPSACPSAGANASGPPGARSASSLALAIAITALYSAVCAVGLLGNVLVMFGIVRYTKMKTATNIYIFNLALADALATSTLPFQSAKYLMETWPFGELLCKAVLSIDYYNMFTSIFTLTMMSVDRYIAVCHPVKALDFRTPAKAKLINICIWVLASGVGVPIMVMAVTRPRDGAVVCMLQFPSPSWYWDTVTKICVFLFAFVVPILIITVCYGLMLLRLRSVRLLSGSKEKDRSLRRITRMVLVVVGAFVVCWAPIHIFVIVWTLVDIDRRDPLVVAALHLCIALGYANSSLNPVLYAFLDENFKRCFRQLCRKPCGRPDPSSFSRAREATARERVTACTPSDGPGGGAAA

Row | Kb [1] | Kb [3] | Kb [4] | KOP/DOP selectivity ([4]; ratio of Ke values) | MOP/DOP selectivity ([4]; ratio of Ke values) | Structure (SMILES) | Ke at the KOP [2] | δ/κ selectivity ([2]; J. Nat. Prod. 2014) | μ/κ selectivity ([2]; J. Nat. Prod. 2014) | intrinsic agonist activity [5]
1 | 200 nM | 570000 nM | 2900 nM |  |  | CC(C)=CCC/C(C)=C/Cc1c(O)cc(O)cc1/C=C/c1ccc(O)c(O)c1CC=C(C)C [Compound 1, pawhuskin A] | 0.20 µM |  |  | 
2 | 150 nM | > 10000 nM | > 10000 nM |  |  | COc1cc(/C=C/c2cc(O)c(O)c(CC=C(C)C)c2)c(C/C=C(\C)CCC=C(C)C)c(OC)c1 [Compound 3, 5-((E)-2-((E)-3,7-dimethylocta-2,6-dien-1-yl)-3,5-dimethoxystyryl)-3-(3-methylbut-2-en-1-yl)benzene-1,2-diol] | 0.15 µM | > 67 | > 67 | 
3 | > 10000 nM | > 10000 nM | 25 nM | > 400 | > 400 | COc1cc(/C=C/c2ccc(O)c(O)c2CC=C(C)C)c(C/C=C(\C)CCC=C(C)C)c(OC)c1 [Compound 4] |  |  |  | no agonist activity
